According to paper PMC8469034, “Catalytic Asymmetry in Homodimeric H^+-Pumping Membrane Pyrophosphatase Demonstrated by Non-Hydrolyzable Pyrophosphate Analogs” (International Journal of Molecular Sciences, 2021):
Like-named read-outs stand apart in the source and are kept apart here.

Assays:
[1] = molecular target: T1, Dh-mPPase (Desulfitobacterium hafniense, UniProt B8FXV7); assay: continuous Pi analyzer assay of PPi hydrolysis, inverted membrane vesicles, global fit; assay type: biochemical
T1 construct: gene hppA; full-length membrane protein expressed in E. coli C41(DE3)ril, assayed in inverted membrane vesicles; homodimer; K+-dependent H+-transporting, EC 7.1.3.1
T1 sequence (B8FXV7 1-671): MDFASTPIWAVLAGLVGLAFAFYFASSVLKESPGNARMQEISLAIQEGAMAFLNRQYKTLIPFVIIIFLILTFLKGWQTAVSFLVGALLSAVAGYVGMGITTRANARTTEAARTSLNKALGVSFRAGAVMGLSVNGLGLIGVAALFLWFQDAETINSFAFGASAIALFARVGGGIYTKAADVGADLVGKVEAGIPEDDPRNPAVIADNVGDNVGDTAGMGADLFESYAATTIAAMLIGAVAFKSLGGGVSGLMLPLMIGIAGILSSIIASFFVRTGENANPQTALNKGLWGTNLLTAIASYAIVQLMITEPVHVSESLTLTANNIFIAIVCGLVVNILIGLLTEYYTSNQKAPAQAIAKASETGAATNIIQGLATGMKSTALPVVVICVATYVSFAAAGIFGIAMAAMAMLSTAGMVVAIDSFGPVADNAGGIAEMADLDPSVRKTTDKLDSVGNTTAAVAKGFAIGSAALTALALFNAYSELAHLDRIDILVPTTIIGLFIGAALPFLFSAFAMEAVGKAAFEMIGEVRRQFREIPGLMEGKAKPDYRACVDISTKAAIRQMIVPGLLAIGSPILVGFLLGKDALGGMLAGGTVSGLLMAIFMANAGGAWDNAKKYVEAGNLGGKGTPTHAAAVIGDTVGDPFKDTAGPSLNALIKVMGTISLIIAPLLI
Text: continuous Pi analyzer assay of PPi hydrolysis, inverted membrane vesicles, global fit on Dh-mPPase

[2] = substrate: O=P(O)(O)OP(=O)(O)O; assay: cells, lysate or membranes; assay type: biochemical, Desulfitobacterium hafniense; conditions: varied free Mg2+ (extrapolated to Mg2+ saturation), 50 mM K+, 0.1 M MOPS-KOH pH 7.2, 25 °C, no inhibitor, first site of dimer, macroscopic, substrate counted as Mg2PPi

Molecule: O=P(O)(O)NP(=O)(O)O [IDP]
- Ki ([1]; read-out: Value / IDP): 4.2 ± 0.2 µM

Molecule: CC(O)(P(=O)(O)O)P(=O)(O)O [HEDP]
- Ki ([1]; read-out: Value / HEDP): 27 ± 1 µM

Molecule: NC(P(=O)(O)O)P(=O)(O)O [AMDP]
- Ki ([1]; read-out: Value / AMDP): 0.4 ± 0.02 µM

B1: Dh-mPPase (Desulfitobacterium hafniense DCB-2) (protein)
chain: T1 sequence (B8FXV7 1-671)
notes: full-length membrane protein expressed in E. coli C41(DE3)ril, assayed in inverted membrane vesicles; homodimer; K+-dependent H+-transporting, EC 7.1.3.1
- Km [2]: 2.2 ± 0.1 µM
